One block for each molecule: values may come before it. Square brackets hold non-standard residues; d marks the D form. Peptide text beside a SMILES is read from it. * marks the point of attachment. Sta = CC(C)C[C@H](N)[C@@H](O)CC(=O)O; Isovaleryl = CC(C)CC(=O)*; Nle = CCCC[C@H](N)C(=O)O
Experiments:
HepG2 cells [1] = experiment: Degradation of α-DNP antibody endocytosed via DNP-AF3 in HepG2 cells (PAGE, 50 kDa/25 kDa band ratio) and effect of protease inhibitors; assay type: cell-based, human; details: for inhibition of α-DNP antibody degradation, triplicate: 12 hours, FIG. 117; for toxicity to cells: pepstatin 5 μM after 24 hours, AEBSF 100 μM, ALLN 100 μM by 24 hours; for inhibition of degradation of α-DNP antibody, repeat with selected conditions: 80 μM leupeptin, 10 and 100 μM ALLN, 15 μM pepstatin, FIG. 118, leupeptin not significant (p=0.0504)
Description: First, reducing conditions were used to visualize antibody degradation via PAGE gel.

HepG2 cells [2] = experiment: DNP-GN3-mediated endocytosis of fluorescently labeled α-DNP antibody by adherent HepG2 cells; assay type: cell-based, human; details: DNP-GN3-mediated uptake; FIG. 89
Experimental: It was next explored whether DNP-GN3 mediates the endocytosis of fluorescently labeled α-DNP antibody.
To explore the cellular mechanism of antibody uptake, cells were treated with chemical inhibitors of several endocytic pathways (FIG. 89).

HepG2 cells [3] = experiment: MIF-GN3-mediated endocytosis of fluorescently labeled human MIF by HepG2 cells; details: for effect of endocytic pathway inhibitors on MIF-GN3-mediated MIF endocytosis: 100 nM MIF, 200 nM MIF-GN3, FIG. 132
Experimental: Human MIF protein was fluorescently labeled with Alexa 488 NHS ester, then incubated with HepG2 cells in the presence of varying levels of MIF-GN3.
Next, inhibitors of various endocytic pathways were utilized to determine if MIF-GN3 mediates MIF endocytosis in a manner consistent with ASGPR (FIG. 132).

human MIF = target: T1, human MIF (Homo sapiens, UniProt P14174); experiment: Depletion of human MIF from cell culture supernatant (sandwich ELISA); assay type: cell-based; set-up: host or cells: exogenous protein added to cell culture; details: for depletion of MIF from cell culture supernatant / depletion of human MIF from cell culture supernatant: human MIF 100 nM; for depletion of MIF from cell culture supernatant: MIF-AF2 at 40 nM, 200 nM, and 1 μM, FIG. 129; for depletion of human MIF from cell culture supernatant: FIG. 128A
T1 sequence (P14174 2-115 limits assumed): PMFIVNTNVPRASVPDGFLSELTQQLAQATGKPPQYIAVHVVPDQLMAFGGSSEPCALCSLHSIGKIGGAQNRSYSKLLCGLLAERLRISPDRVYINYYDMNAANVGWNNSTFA
Experimental: The ability of bifunctional MIF-binding molecules to mediate the depletion of human MIF from cell culture was investigated. In these assays, human MIF was present at a concentration of 100 nM, and a sandwich ELISA assay was utilized to measure the concentration of human MIF remaining in the cell culture supernatant. The closely related bifunctional molecules MIF-GN3, MIF-PEG2-GN3, and MIF-PEG4-GN3 were used, as well as the structurally dissimilar molecule MIF-NVS-PEG3-GN3. […] Based on the ease of its synthesis and its efficacy in this experiment, MIF-GN3 was utilized for further studies. It was next investigated whether the MIF inhibitor 3w mediates MIF depletion from cell culture supernatant. […] When cells were treated with 3w, no depletion of exogenous MIF protein was observed after 24 hours (FIG. 128B).

HepG2 cells [4] = experiment: DNP-AF3-mediated endocytosis of fluorescently labeled α-DNP antibody by HepG2 cells (flow cytometry); assay type: cell-based, human; details: 40 nM DNP-AF3, 100 nM antibody; FIG. 106
Experimental: The intracellular fluorescence of cells that were incubated at 37° C. with both fluorescently labeled α-DNP antibody and DNP-AF3 for a given amount of time was examined. Cells were then washed, removed from the plate with trypsin, and subjected to flow cytometry. Trypsin treatment is expected to cleave ASGPR and surface-bound α-DNP antibody from cells, and therefore the cellular fluorescence observed in these assays is expected to arise only from internalized antibodies.
It was then determined if reagents which inhibit ternary complex formation inhibit endocytosis mediated by DNP-AF3. In order to account for non-specific antibody association with cells, the mean fluorescence intensity of an aliquot of cells which had been treated with α-DNP antibody but not DNP-AF3 was subtracted from each reading. […] In the presence of 2.38 μM (0.1 mg/mL) ASOR, the cell population fluorescence was decreased to 4.66e5 (FIG. 105); at this ASOR concentration, ternary complex formation is decreased by approximately 70%. Because ternary complex is not inhibited completely at this concentration of ASOR, it is expected that productive endocytic events are still taking place.

[5] = single replicate, FIG. 116, leupeptin 20 and 80, E64 50 and 10 μM, antipain 50 and 100 μM, aprotinin 400 or 800 nM, PMSF 100 or 500 μM, AEBSF 10 μM, ALLN 10 μM

Molecule: Cl.NCCc1ccc(S(=O)(=O)F)cc1 [AEBSF, 4-(2-aminoethyl)benzeneulfonyl fluoride hydrochloride]
inhibition of α-DNP antibody degradation, triplicate (HepG2 cells [1]): did not significantly inhibit
toxicity to cells (HepG2 cells [1]): toxic to cells
inhibition of α-DNP antibody degradation, initial screen (HepG2 cells [1]; [5]): not effective

Molecule: CCCC[C@@H](C=O)NC(=O)[C@H](CC(C)C)NC(=O)[C@H](CC(C)C)NC(C)=O [ALLN] (Ac-Leu-Leu-[Nle]-aldehyde)
inhibition of α-DNP antibody degradation, initial screen (HepG2 cells [1]; 100 μM, 12 hour time point): strong inhibition
inhibition of α-DNP antibody degradation, triplicate (HepG2 cells [1]): appeared effective
inhibition of α-DNP antibody degradation, initial screen (HepG2 cells [1]; [5]): not active

Molecule: CC(C)C[C@H](NC(=O)[C@@H](O)[C@H](N)Cc1ccccc1)C(=O)O [Bestatin]
inhibition of α-DNP antibody degradation, triplicate (HepG2 cells [1]): did not significantly inhibit
inhibition of α-DNP antibody degradation, initial screen (HepG2 cells [1]; [5]): not effective

Molecule: CC(C)C[C@H](NC(=O)[C@H]1O[C@@H]1C(=O)O)C(=O)NCCCCN=C(N)N [Compound E64, E64]
inhibition of degradation of α-DNP antibody, repeat with selected conditions (HepG2 cells [1]): inhibited degradation
inhibition of α-DNP antibody degradation, triplicate (HepG2 cells [1]): inhibit α-DNP antibody degradation at all concentrations tested
inhibition of α-DNP antibody degradation, initial screen (HepG2 cells [1]; [5]): effective

Molecule: CCN(c1nc(N)c(C(=O)NC(=N)N)nc1Cl)C(C)C [EIPA]
effect of endocytic pathway inhibitors on intracellular fluorescence (HepG2 cells [2]): did not significantly decrease
effect of endocytic pathway inhibitors on MIF-GN3-mediated MIF endocytosis (HepG2 cells [3]): significantly inhibited uptake

depletion of MIF from cell culture supernatant (human MIF): not effective
Molecule: O=C(CCCOc1ccc2nc(-c3cn(-c4ccc(O)c(F)c4)nn3)ccc2c1)NCCOCCC(=O)NCCOCCOCCOCCOC[C@]12CO[C@H](O1)[C@H](NC(=O)C(F)(F)F)[C@@H](O)[C@H]2O [MIF-AF1]

depletion of MIF from the cell culture supernatant (human MIF; 200 nM or 1 (μM), after 48 hours): ~100%
depletion of MIF from cell culture supernatant (human MIF): effective at depleting MIF
Molecule: O=C(CCOCC(COCCC(=O)NCCOCCOCCOCCOC[C@]12CO[C@H](O1)[C@H](NC(=O)C(F)(F)F)[C@@H](O)[C@H]2O)NC(=O)CCCOc1ccc2nc(-c3cn(-c4ccc(O)c(F)c4)nn3)ccc2c1)NCCOCCOCCOCCOC[C@]12CO[C@H](O1)[C@H](NC(=O)C(F)(F)F)[C@@H](O)[C@H]2O [MIF-AF2]

molar equivalents of MIF protein depleted (human MIF; 40 nM): 2.08 molar equivalents
human MIF protein removed (human MIF; 40 nM (4.0 pmol of molecule)): 8.32 pmol
removal of MIF present in the cell culture supernatant (human MIF; 40 nM (4.0 pmol of molecule)): 83.2%
Molecule: O=C(CCOCC(COCCC(=O)NCCOCCOCCOCCOC[C@]12CO[C@H](O1)[C@H](NC(=O)C(F)(F)F)[C@@H](O)[C@H]2O)(COCCC(=O)NCCOCCOCCOCCOC[C@]12CO[C@H](O1)[C@H](NC(=O)C(F)(F)F)[C@@H](O)[C@H]2O)NC(=O)CCCOc1ccc2nc(-c3cn(-c4ccc(O)c(F)c4)nn3)ccc2c1)NCCOCCOCCOCCOC[C@]12CO[C@H](O1)[C@H](NC(=O)C(F)(F)F)[C@@H](O)[C@H]2O [MIF-AF3]

Molecule: CC(=O)NC1C(OCCOCCOCCNC(=O)CCOCC(COCCC(=O)NCCOCCOCCOC2OC(CO)C(O)C(O)C2NC(C)=O)(COCCC(=O)NCCOCCOCCOC2OC(CO)C(O)C(O)C2NC(C)=O)NC(=O)CNC(=O)COCCOCCOCCn2cc(COCCOCCOc3ccc(N4Cc5ccc(O)cc5OC4=O)cc3)nn2)OC(CO)C(O)C1O (centres unmarked) [MIF-NVS-PEG3-GN3]
depletion of human MIF from cell culture supernatant (human MIF; 24 hours): effective at mediating the depletion of human MIF

Molecule: CC(=O)NC1C(OCCOCCOCCNC(=O)CCOCC(COCCC(=O)NCCOCCOCCOC2OC(CO)C(O)C(O)C2NC(C)=O)(COCCC(=O)NCCOCCOCCOC2OC(CO)C(O)C(O)C2NC(C)=O)NC(=O)CNC(=O)COCCOCCNC(=O)CCCOc2ccc3nc(-c4cn(-c5ccc(O)c(F)c5)nn4)ccc3c2)OC(CO)C(O)C1O (centres unmarked) [MIF-PEG2-GN3]
depletion of exogenous MIF protein from supernatant (human MIF; 24 hours, FIG. 128B): mediated MIF depletion across a range of concentrations
depletion of human MIF from cell culture supernatant (human MIF; 24 hours): effective at mediating the depletion of human MIF

Molecule: CC(=O)NC1C(OCCOCCOCCNC(=O)CCOCC(COCCC(=O)NCCOCCOCCOC2OC(CO)C(O)C(O)C2NC(C)=O)(COCCC(=O)NCCOCCOCCOC2OC(CO)C(O)C(O)C2NC(C)=O)NC(=O)CNC(=O)COCCOCCOCCOCCNC(=O)CCCOc2ccc3nc(-c4cn(-c5ccc(O)c(F)c5)nn4)ccc3c2)OC(CO)C(O)C1O (centres unmarked) [MIF-PEG4-GN3]
depletion of human MIF from cell culture supernatant (human MIF; 24 hours): effective at mediating the depletion of human MIF

Molecule: O=S(=O)(F)Cc1ccccc1 [PMSF, Phenylmethylsulfonyl fluoride]
inhibition of α-DNP antibody degradation, triplicate (HepG2 cells [1]): did not significantly inhibit
inhibition of α-DNP antibody degradation, initial screen (HepG2 cells [1]; [5]): not effective

Molecule: CC(C)CC(=O)N[C@H](C(=O)N[C@H](C(=O)N[C@@H](CC(C)C)[C@@H](O)CC(=O)N[C@@H](C)C(=O)N[C@@H](CC(C)C)[C@@H](O)CC(=O)O)C(C)C)C(C)C [Pepstatin] (Isovaleryl-VV[Sta]A[Sta]-OH)
inhibition of degradation of α-DNP antibody, repeat with selected conditions (HepG2 cells [1]): did not
inhibition of α-DNP antibody degradation, triplicate (HepG2 cells [1]): did not significantly inhibit
toxicity to cells (HepG2 cells [1]): toxic to cells
inhibition of α-DNP antibody degradation, initial screen (HepG2 cells [1]; [5]): not effective

Molecule: Cl.N [ammonium chloride]
effect of endocytic pathway inhibitors on MIF-GN3-mediated MIF endocytosis (HepG2 cells [3]): near background levels

Molecule: CO/C1=C\C(C)=C\[C@@H](C)[C@@H](O)[C@@H](C)C/C(C)=C/C=C/[C@H](OC)[C@@H]([C@@H](C)[C@@H](O)[C@H](C)[C@@]2(O)C[C@@H](O)[C@H](C)[C@@H](C(C)C)O2)OC1=O [bafilomycin, Bafilomycin]
effect of endocytic pathway inhibitors on intracellular fluorescence (HepG2 cells [2]): significantly decreased
effect of endocytic pathway inhibitors on MIF-GN3-mediated MIF endocytosis (HepG2 cells [3]): near background levels

Molecule: CCN(CC)CCCC(C)Nc1ccnc2cc(Cl)ccc12 (centres unmarked) [chloroquine, Chloroquine]
effect of endocytic pathway inhibitors on intracellular fluorescence (HepG2 cells [2]): significantly decreased
effect of endocytic pathway inhibitors on MIF-GN3-mediated MIF endocytosis (HepG2 cells [3]): near background levels

Molecule: C=C1[C@@H](C)[C@H]2[C@H](Cc3ccccc3)NC(=O)[C@]23[C@H](OC(C)=O)/C=C/[C@@](C)(O)C(=O)[C@@H](C)C/C=C/[C@H]3[C@@H]1O [cytochalasin D]
effect of endocytic pathway inhibitors on intracellular fluorescence (HepG2 cells [2]): did not significantly decrease

Molecule: C=C1[C@@H](C)[C@H]2[C@H](Cc3ccccc3)NC(=O)[C@]23[C@H](OC(C)=O)/C=C/[C@@](C)(O)C(=O)[C@@H](C)C/C=C/[C@H]3[C@@H]1O [cytochalisin D (CytD)]
effect of endocytic pathway inhibitors on fluorescence of the cell population (HepG2 cells [4]): non-significant decrease

Molecule: O=c1c(-c2ccc(O)cc2)coc2cc(O)cc(O)c12 [genistein, Genistein]
effect of endocytic pathway inhibitors on fluorescence of the cell population (HepG2 cells [4]): did not significantly decrease
toxicity to cells (HepG2 cells [3]; HepG2 cells with MIF and MIF-GN3): toxic to cells

Molecule: CC(=O)N[C@@H](CC(C)C)C(=O)N[C@@H](CC(C)C)C(=O)N[C@H](C=O)CCCNC(=N)N [leupeptin, Leupeptin]
inhibition of degradation of α-DNP antibody, repeat with selected conditions (HepG2 cells [1]): inhibited degradation
inhibition of α-DNP antibody degradation, triplicate (HepG2 cells [1]): inhibit α-DNP antibody degradation at all concentrations tested
inhibition of α-DNP antibody degradation, initial screen (HepG2 cells [1]; [5]): effective

Molecule: CC[C@@]1([C@@H]2O[C@@H]([C@H]3O[C@@](O)(CO)[C@H](C)C[C@@H]3C)C[C@@H]2C)CC[C@H]([C@]2(C)CC[C@]3(C[C@H](O)[C@@H](C)[C@@H]([C@@H](C)[C@@H](OC)[C@H](C)C(=O)O)O3)O2)O1 [monensin, Monensin]
effect of endocytic pathway inhibitors on intracellular fluorescence (HepG2 cells [2]): significantly decreased
effect of endocytic pathway inhibitors on MIF-GN3-mediated MIF endocytosis (HepG2 cells [3]): near background levels

Molecule: OC[C@H]1O[C@@](CO)(O[C@H]2O[C@H](CO)[C@@H](O)[C@H](O)[C@H]2O)[C@@H](O)[C@@H]1O [sucrose]
effect of endocytic pathway inhibitors on intracellular fluorescence (HepG2 cells [2]): significantly decreased
effect of endocytic pathway inhibitors on MIF-GN3-mediated MIF endocytosis (HepG2 cells [3]): near background levels

Molecule: Aprotinin
inhibition of α-DNP antibody degradation, triplicate (HepG2 cells [1]): did not significantly inhibit
inhibition of α-DNP antibody degradation, initial screen (HepG2 cells [1]; [5]): not effective

From US20230087994A1, “TARGETED BIFUNCTIONAL DEGRADERS” (YALE UNIVERSITY, priority 2019, published 2023)
